The test concerns the target T1, Androgen Receptor (Homo sapiens, UniProt P10275, T878A).
T1 construct: the AR gene was modified, using CRISPR/Cas9 editing, so the expressed AR protein included an 11 amino acid HiBiT tag; endogenous in cells; host or cells: clonal LnCaP-derived line, AR gene edited by CRISPR/Cas9
Nature of the test: Androgen Receptor Degradation Assay (Nano-Glo HiBiT). Type of test: cell-based. The note with it: LNCaP, 18 h, HiBiT-tagged AR in human LnCaP cells, read-out: mean asymptote max. An outline of the steps:
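LnCaP cells with CRISPR-knocked-in N-terminal HiBiT-tagged AR (10,000/well) treated 18 h at 37 °C with PROTACs over 11 threefold concentrations; lytic HiBiT luminescence normalised to DMSO (0%) and cell-free (100%) controls. Relative DC50 = 4-parameter fit inflection; absolute DC50 = 50% degradation interpolation; Dmax = maximum observed degradation.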
For orientation: With HiBiT, luminescence reflects the tagged protein that the partner subunit can reach.

Where a name gives a salt, the structure may show the parent alone.

T1 sequence (P10275 whole entry T878A): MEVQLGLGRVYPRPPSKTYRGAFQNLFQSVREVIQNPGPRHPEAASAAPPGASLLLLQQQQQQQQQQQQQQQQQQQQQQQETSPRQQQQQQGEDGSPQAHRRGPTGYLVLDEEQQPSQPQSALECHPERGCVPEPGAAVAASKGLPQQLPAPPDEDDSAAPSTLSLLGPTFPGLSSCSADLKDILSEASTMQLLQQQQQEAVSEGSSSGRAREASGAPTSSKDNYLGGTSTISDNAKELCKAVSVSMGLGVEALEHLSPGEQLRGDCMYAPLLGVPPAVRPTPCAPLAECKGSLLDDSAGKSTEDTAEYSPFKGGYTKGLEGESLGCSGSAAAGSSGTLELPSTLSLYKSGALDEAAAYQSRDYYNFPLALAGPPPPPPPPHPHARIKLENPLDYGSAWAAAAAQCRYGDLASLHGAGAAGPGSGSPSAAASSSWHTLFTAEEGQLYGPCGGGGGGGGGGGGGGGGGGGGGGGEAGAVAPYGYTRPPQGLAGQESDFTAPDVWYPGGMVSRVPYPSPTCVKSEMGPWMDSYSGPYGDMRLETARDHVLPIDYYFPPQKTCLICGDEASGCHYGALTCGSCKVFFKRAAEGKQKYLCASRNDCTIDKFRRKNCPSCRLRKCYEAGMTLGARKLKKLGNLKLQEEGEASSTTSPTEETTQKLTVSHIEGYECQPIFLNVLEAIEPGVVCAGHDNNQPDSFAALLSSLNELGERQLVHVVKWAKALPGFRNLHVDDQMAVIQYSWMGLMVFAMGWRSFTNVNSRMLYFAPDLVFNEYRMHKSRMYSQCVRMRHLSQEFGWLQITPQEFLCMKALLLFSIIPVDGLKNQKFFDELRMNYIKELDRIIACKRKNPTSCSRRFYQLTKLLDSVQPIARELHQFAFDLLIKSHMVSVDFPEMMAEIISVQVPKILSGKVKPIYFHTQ
T1 sequence (Q96SW2 whole entry partner): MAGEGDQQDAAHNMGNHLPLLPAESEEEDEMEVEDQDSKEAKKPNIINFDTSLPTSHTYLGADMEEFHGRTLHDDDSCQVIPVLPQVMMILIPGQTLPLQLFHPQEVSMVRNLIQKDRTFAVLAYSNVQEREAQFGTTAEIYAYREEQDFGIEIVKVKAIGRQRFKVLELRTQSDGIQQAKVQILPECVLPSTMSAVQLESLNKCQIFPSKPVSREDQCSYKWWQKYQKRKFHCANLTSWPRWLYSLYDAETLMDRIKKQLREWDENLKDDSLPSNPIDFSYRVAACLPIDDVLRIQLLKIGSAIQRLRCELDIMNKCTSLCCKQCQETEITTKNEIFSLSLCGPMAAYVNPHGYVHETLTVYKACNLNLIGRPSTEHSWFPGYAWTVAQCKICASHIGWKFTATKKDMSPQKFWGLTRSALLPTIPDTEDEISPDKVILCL
T1 sequence (Q16531 whole entry partner): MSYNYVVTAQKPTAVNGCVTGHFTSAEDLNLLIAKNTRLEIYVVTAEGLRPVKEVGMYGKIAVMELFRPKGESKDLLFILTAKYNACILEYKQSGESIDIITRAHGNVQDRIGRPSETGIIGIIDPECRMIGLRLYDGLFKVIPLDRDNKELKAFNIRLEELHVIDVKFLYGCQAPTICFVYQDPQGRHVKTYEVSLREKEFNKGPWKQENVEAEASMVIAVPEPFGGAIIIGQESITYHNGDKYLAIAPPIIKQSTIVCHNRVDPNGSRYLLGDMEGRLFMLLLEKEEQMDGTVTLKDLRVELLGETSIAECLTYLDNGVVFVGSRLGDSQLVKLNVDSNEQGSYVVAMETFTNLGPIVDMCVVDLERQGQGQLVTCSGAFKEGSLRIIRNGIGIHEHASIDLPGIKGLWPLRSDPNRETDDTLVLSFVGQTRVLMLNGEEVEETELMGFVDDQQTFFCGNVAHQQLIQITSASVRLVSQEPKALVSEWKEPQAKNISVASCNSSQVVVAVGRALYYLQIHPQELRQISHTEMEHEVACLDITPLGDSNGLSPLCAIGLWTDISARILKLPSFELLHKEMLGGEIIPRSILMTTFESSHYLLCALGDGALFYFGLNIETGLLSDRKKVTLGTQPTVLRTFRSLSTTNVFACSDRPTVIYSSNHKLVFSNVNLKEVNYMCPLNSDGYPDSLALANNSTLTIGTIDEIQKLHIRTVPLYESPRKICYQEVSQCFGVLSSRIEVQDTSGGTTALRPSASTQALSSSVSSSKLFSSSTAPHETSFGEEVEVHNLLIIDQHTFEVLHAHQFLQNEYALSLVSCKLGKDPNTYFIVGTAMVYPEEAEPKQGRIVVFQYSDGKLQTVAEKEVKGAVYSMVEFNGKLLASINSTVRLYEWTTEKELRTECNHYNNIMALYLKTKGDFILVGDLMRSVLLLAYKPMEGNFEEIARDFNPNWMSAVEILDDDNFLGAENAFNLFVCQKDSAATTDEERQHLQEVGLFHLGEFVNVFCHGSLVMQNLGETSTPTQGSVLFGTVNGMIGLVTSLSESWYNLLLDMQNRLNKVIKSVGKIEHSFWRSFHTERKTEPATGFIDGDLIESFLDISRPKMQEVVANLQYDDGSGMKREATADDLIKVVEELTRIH

Regarding `CC(C)n1ccc2c(N3CCC(=O)NC3=O)cc(C(=O)N3CCN(CCCCOc4ccc(N5C(=S)N(c6ccc(C#N)c(C(F)(F)F)c6)C(=O)C5(C)C)cc4)CC3)cc21` [EAR92, 4-(3-(4-(4-(4-(4-(2,4-Dioxotetrahydropyrimidin-1(2H)-yl)-1-isopropyl-1H-indole-6-carbonyl)piperazin-1-yl)butoxy)phenyl)-4,4-dimethyl-5-oxo-2-thioxoimidazolidin-1-yl)-2-(trifluoromethyl)benzonitrile], the Dmax was at least 50%.
Consider `CC(C)n1ccc2c(N3CCC(=O)NC3=O)cc(C(=O)N3CCC4(CCN(Cc5ccc(C(=O)N[C@H]6CC[C@H](Oc7ccc(C#N)c(Cl)c7)CC6)cc5)CC4)CC3)cc21` [EAR84, N-((1r,4r)-4-(3-Chloro-4-cyanophenoxy)cyclohexyl)-4-((9-(4-(2,4-dioxotetrahydropyrimidin-1(2H)-yl)-1-isopropyl-1H-indole-6-carbonyl)-3,9-diazaspiro[5.5]undecan-3-yl)methyl)benzamide], for which the Dmax is at least 50%.
For `N#Cc1ccc(O[C@H]2CC[C@H](NC(=O)c3ccc(N4CCC(CN5CCC(n6ccc7c(N8CCC(=O)NC8=O)nc(Cl)nc76)CC5)CC4)nn3)CC2)cc1Cl` [EAR175, 6-(4-((4-(2-Chloro-4-(2,4-dioxotetrahydropyrimidin-1(2H)-yl)-7H-pyrrolo[2,3-d]pyrimidin-7-yl)piperidin-1-yl)methyl)piperidin-1-yl)-N-((1r,4r)-4-(3-chloro-4-cyanophenoxy)cyclohexyl)pyridazine-3-carboxamide], the Dmax was at least 50%.
As for `CC(C)n1ccc2c(N3CCC(=O)NC3=O)cc(C(=O)N(C)CC3CCN(CCCOc4ccc(N5C(=S)N(c6ccc(C#N)c(C(F)(F)F)c6)C(=O)C5(C)C)cc4)CC3)cc21` [EAR93, N-((1-(3-(4-(3-(4-Cyano-3-(trifluoromethyl)phenyl)-5,5-dimethyl-4-oxo-2-thioxoimidazolidin-1-yl)phenoxy)propyl)piperidin-4-yl)methyl)-4-(2,4-dioxotetrahydropyrimidin-1(2H)-yl)-1-isopropyl-N-methyl-1H-indole-6-carboxamide formate], the Dmax is at least 50%.
To `N#Cc1ccc(O[C@H]2CC[C@H](NC(=O)c3ccc(N4CCC(n5ccc6c(N7CCC(=O)NC7=O)cccc65)CC4)cc3)CC2)cc1Cl` [EAR54, N-((1r,4r)-4-(3-Chloro-4-cyanophenoxy)cyclohexyl)-4-(4-(4-(2,4-dioxotetrahydropyrimidin-1(2H)-yl)-1H-indol-1-yl)piperidin-1-yl)benzamide] belongs at least 50%; to `N#Cc1ccc(O[C@H]2CC[C@H](NC(=O)c3ccc(N4CCC5(CC4)CC(N4CCC(n6ccc7c(N8CCC(=O)NC8=O)cccc76)CC4)C5)nn3)CC2)cc1Cl` [EAR193, N-((1r,4r)-4-(3-Chloro-4-cyanophenoxy)cyclohexyl)-6-(2-(4-(4-(2,4-dioxotetrahydropyrimidin-1(2H)-yl)-1H-indol-1-yl)piperidin-1-yl)-7-azaspiro[3.5]nonan-7-yl)pyridazine-3-carboxamide], at least 50%; to `CC1(CN2CCC(n3ccc4c(N5CCC(=O)NC5=O)cccc43)CC2)CCN(c2ccc(C(=O)N[C@H]3CC[C@H](Oc4ccc(C#N)c(Cl)c4)CC3)nn2)CC1` [EAR213, N-((1r,4r)-4-(3-Chloro-4-cyanophenoxy)cyclohexyl)-6-(4-((4-(4-(2,4-dioxotetrahydropyrimidin-1(2H)-yl)-1H-indol-1-yl)piperidin-1-yl)methyl)-4-methylpiperidin-1-yl)pyridazine-3-carboxamide], at least 50%.
To `N#Cc1ccc(O[C@H]2CC[C@H](NC(=O)c3ccc(N4CCC(CN5CC[C@H](n6ccc7c(N8CCC(=O)NC8=O)cccc76)C5)CC4)nn3)CC2)cc1Cl` [EAR171, N-((1r,4r)-4-(3-Chloro-4-cyanophenoxy)cyclohexyl)-6-(4-(((R)-3-(4-(2,4-dioxotetrahydropyrimidin-1(2H)-yl)-1H-indol-1-yl)pyrrolidin-1-yl)methyl)piperidin-1-yl)pyridazine-3-carboxamide, hydrochloride] belongs at least 50%; to `N#Cc1ccc(O[C@H]2CC[C@H](NC(=O)c3cnc(N4CCC(CN5CCC(n6ccc7c(N8CCC(=O)NC8=O)nccc76)CC5)CC4)cn3)CC2)cc1Cl` [EAR182, N-((1r,4r)-4-(3-Chloro-4-cyanophenoxy)cyclohexyl)-5-(4-((4-(4-(2,4-dioxotetrahydropyrimidin-1(2H)-yl)-1H-pyrrolo[3,2-c]pyridin-1-yl)piperidin-1-yl)methyl)piperidin-1-yl)pyrazine-2-carboxamide], at least 50%; to `N#Cc1ccc(O[C@H]2CC[C@H](NC(=O)c3ccc(N4CCC(CN5CCC(n6ccc7c(N8CCC(=O)NC8=O)cccc76)CC5)CC4)cc3F)CC2)cc1Cl` [EAR187, N-((1r,4r)-4-(3-Chloro-4-cyanophenoxy)cyclohexyl)-4-(4-((4-(4-(2,4-dioxotetrahydropyrimidin-1(2H)-yl)-1H-indol-1-yl)piperidin-1-yl)methyl)piperidin-1-yl)-2-fluorobenzamide], at least 50%.
To `CC1(C)[C@H](NC(=O)c2ccc(N3CCC(CN4CCC(n5ccc6c(N7CCC(=O)NC7=O)cccc65)CC4)CC3)nn2)C(C)(C)[C@H]1Oc1ccc(C#N)c(Cl)c1` [EAR55, N-((1r,3r)-3-(3-Chloro-4-cyanophenoxy)-2,2,4,4-tetramethylcyclobutyl)-6-(4-((4-(4-(2,4-dioxotetrahydropyrimidin-1(2H)-yl)-1H-indol-1-yl)piperidin-1-yl)methyl)piperidin-1-yl)pyridazine-3-carboxamide] belongs at least 50%; to `N#Cc1ccc(O[C@H]2CC[C@H](NC(=O)c3ccc(N4CCN(CC5CCC(n6ccc7c(N8CCC(=O)NC8=O)cccc76)CC5)CC4)nn3)CC2)cc1Cl` (some centres unmarked) [EAR194, N-((1r,4r)-4-(3-Chloro-4-cyanophenoxy)cyclohexyl)-6-(4-((4-(4-(2,4-dioxotetrahydropyrimidin-1(2H)-yl)-1H-indol-1-yl)cyclohexyl)methyl)piperazin-1-yl)pyridazine-3-carboxamide, trifluoroacetic acid salt], at least 50%; to `N#Cc1ccc(O[C@H]2CC[C@H](NC(=O)c3ccc(N4CCC(CN5CCC(n6ncc7c(N8CCC(=O)NC8=O)cc(F)cc76)CC5)CC4)nn3)CC2)cc1Cl` [EAR33, N-((1r,4r)-4-(3-Chloro-4-cyanophenoxy)cyclohexyl)-6-(4-((4-(4-(2,4-dioxotetrahydropyrimidin-1(2H)-yl)-6-fluoro-1H-indazol-1-yl)piperidin-1-yl)methyl)piperidin-1-yl)pyridazine-3-carboxamide], at least 50%.
In the case of `N#Cc1ccc(O[C@H]2CC[C@H](NC(=O)c3ccc(N4CCC(CN5CC[C@@H](n6ccc7c(N8CCC(=O)NC8=O)cccc76)[C@H](F)C5)CC4)nn3)CC2)cc1Cl` [EAR144, N-((1r,4r)-4-(3-Chloro-4-cyanophenoxy)cyclohexyl)-6-(4-(((3R,4R)-4-(4-(2,4-dioxotetrahydropyrimidin-1(2H)-yl)-1H-indol-1-yl)-3-fluoropiperidin-1-yl)methyl)piperidin-1-yl)pyridazine-3-carboxamide, hydrochloride], the Dmax is at least 50%.

The record behind these values is patent publication US20250205344A1, “2,4-DIOXOTETRAHYDROPYRIMIDINYL DERATIVES AS DEGRONS IN PROTACS” (GLAXOSMITHKLINE INTELLECTUAL PROPERTY DEVELOPMENT LIMITED, priority 2022, published 2025).
